The record followed here is patent US12454531B2, “Substituted piperazine derivatives useful as T cell activators” (BRISTOL-MYERS SQUIBB COMPANY, priority 2019, dated 2025).

Structures are written as SMILES.

For the first experiment, the system named is Human whole blood IFN-γ. The experiment is described as follows: Assay 10: Human Whole Blood IFN-γ Assay. The settings on record: Homo sapiens, 24 h, anti-CD3 and anti-CD28 stimulation, 100% = 3 μM reference compound, read-out: INFg Whole Blood Normalized Agonist EC50. The experiment is classed as cell-based. Here is the method: Assay 10: Human Whole Blood IFN-γ Assay
Human venous whole blood (22.5 μL per well), obtained from healthy donors, was pre-treated with compounds for one hour at 37° C. in a humidified 95% air/5% CO2 incubator. The blood was stimulated with 2.5 μL anti-human CD3 and anti-CD28 mAb at a final concentration of 1 μg/mL each for 24 hours at 37° C. IFN-7 in the supernatants was measured using AlphLISA kit (Cat #AL217).
What is called EC50 is the concentration that produces a half-maximal response. `C[C@@H]1CN(c2cc(=O)n(C)c3ccc(C#N)nc23)[C@@H](C)CN1C(C(=O)O)c1ccc(F)cc1` (single isomer, unassigned) [Example 10]: the EC50 is 20 µM.
With `CC(C(=O)NC1CCCC1)N1C[C@H](C)N(c2cc(=O)n(C)c3ccc(C#N)nc23)C[C@H]1C` (single isomer, unassigned) [Example 43], the EC50 is 20 µM.
Still for that read-out and setting: the figure for `C[C@@H]1CN(c2cc(=O)n(C)c3ccc(C#N)nc23)[C@@H](C)CN1C(c1ccc(F)cc1)P(C)(C)=O` (single isomer, unassigned) [Example 49] is 20 µM.
`COC(=O)C(c1ccc(F)cc1)N1C[C@H](C)N(c2cc(=O)n(C)c3ccc(C#N)nc23)C[C@H]1C` (stereo partly drawn) [Example 7, Methyl 2-((2R,5S)-4-(6-cyano-1-methyl-2-oxo-1,2-dihydro-1,5-naphthyridin-4-yl)-2,5-dimethylpiperazin-1-yl)-2-(4-fluorophenyl)acetate]: the EC50 worked out at 0.1 µM.
Same read-out and setting: to `C[C@@H]1CN(c2cc(=O)n(C)c3ccc(C#N)nc23)[C@@H](C)CN1C(C(N)=O)c1ccc(F)cc1` (stereo partly drawn) [Example 13, 2-((2R,5S)-4-(6-cyano-1-methyl-2-oxo-1,2-dihydro-1,5-naphthyridin-4-yl)-2,5-dimethylpiperazin-1-yl)-2-(4-fluorophenyl)acetamide] belongs 20 µM; to `C[C@@H]1CN(c2cc(=O)n(C)c3ccc(C#N)nc23)[C@@H](C)CN1C(C(=O)N(C)C)c1ccc(F)cc1` (stereo partly drawn) [Example 23, 2-((2R,5S)-4-(6-cyano-1-methyl-2-oxo-1,2-dihydro-1,5-naphthyridin-4-yl)-2,5-dimethylpiperazin-1-yl)-2-(4-fluorophenyl)-N,N-dimethylacetamide], 20 µM.
On the same count and under the same terms, to `C[C@@H]1CN(c2cc(=O)n(C)c3ccc(C#N)nc23)[C@@H](C)CN1C(C(=O)NCCO)c1ccc(F)cc1` (stereo partly drawn) [Example 27, 2-((2R,5S)-4-(6-cyano-1-methyl-2-oxo-1,2-dihydro-1,5-naphthyridin-4-yl)-2,5-dimethylpiperazin-1-yl)-2-(4-fluorophenyl)-N-(2-hydroxyethyl)acetamide] belongs 1.54 µM.
Still for that read-out and setting: the figure for `CC(C(=O)Nc1cnn(C)c1)N1C[C@H](C)N(c2cc(=O)n(C)c3ccc(C#N)nc23)C[C@H]1C` (stereo partly drawn) [Example 45, 2-((2R,5S)-4-(6-cyano-1-methyl-2-oxo-1,2-dihydro-1,5-naphthyridin-4-yl)-2,5-dimethylpiperazin-1-yl)-N-(1-methyl-1H-pyrazol-4-yl)propanamide] is 20 µM.
For the molecule `CC(C(=O)NC1CC1)N1C[C@H](C)N(c2cc(=O)n(C)c3ccc(C#N)nc23)C[C@H]1C` (stereo partly drawn) [Example 47, 2-((2R,5S)-4-(6-cyano-1-methyl-2-oxo-1,2-dihydro-1,5-naphthyridin-4-yl)-2,5-dimethylpiperazin-1-yl)-N-cyclopropylpropanamide], the EC50 was 20 µM.

The experiment is the same for the next values; noted with them: anti-CD3 and anti-CD28 stimulation, 24 hours, 100% = 3 μM reference compound, read-out: INFg Whole Blood Normalized Agonist EC50.
With `CC(C)OC(=O)C(c1ccc(F)cc1)N1C[C@H](C)N(c2cc(=O)n(C)c3ccc(C#N)nc23)C[C@H]1C` (single isomer, unassigned) [Example 1], the half-maximal effective concentration (EC50) was 0.61 µM.
On the same count and under the same terms, the figure for `COC(=O)CC(c1ccc(F)cc1)N1C[C@H](C)N(c2cc(=O)n(C)c3ccc(C#N)nc23)C[C@H]1C` (single isomer, unassigned) [Example 31] is 0.15 µM; for `COC(=O)CC(c1ccc(F)cc1)N1C[C@H](C)N(c2cc(=O)n(C)c3ccc(C#N)nc23)C[C@H]1C` (single isomer, unassigned) [Example 32] it is 1.81 µM.
The same measure, in the same setting: to `CC(C(=O)NC1CCCC1)N1C[C@H](C)N(c2cc(=O)n(C)c3ccc(C#N)nc23)C[C@H]1C` (single isomer, unassigned) [Example 44] belongs 20 µM; to `C[C@@H]1CN(c2cc(=O)n(C)c3ccc(C#N)nc23)[C@@H](C)CN1C(c1ccc(F)cc1)P(C)(C)=O` (single isomer, unassigned) [Example 50], 20 µM.
For the molecule `C[C@@H]1CN(c2cc(=O)n(C)c3ccc(C#N)nc23)[C@@H](C)CN1C(C(N)=O)c1ccc(F)cc1` (stereo partly drawn) [Example 14, 2-((2R,5S)-4-(6-cyano-1-methyl-2-oxo-1,2-dihydro-1,5-naphthyridin-4-yl)-2,5-dimethylpiperazin-1-yl)-2-(4-fluorophenyl)acetamide], the EC50 was found to be 20 µM.
The same measure, in the same setting: the figure for `C[C@@H]1CN(c2cc(=O)n(C)c3ccc(C#N)nc23)[C@@H](C)CN1C(C(=O)N1CCCC1)c1ccc(F)cc1` (stereo partly drawn) [Example 21, 8-((2S,5R)-4-(1-(4-fluorophenyl)-2-oxo-2-(pyrrolidin-1-yl)ethyl)-2,5-dimethylpiperazin-1-yl)-5-methyl-6-oxo-5,6-dihydro-1,5-naphthyridine-2-carbonitrile] is 2.56 µM; for `C[C@@H]1CN(c2cc(=O)n(C)c3ccc(C#N)nc23)[C@@H](C)CN1C(C(=O)N1CCCC1)c1ccc(F)cc1` (stereo partly drawn) [Example 22, 8-((2S,5R)-4-(1-(4-fluorophenyl)-2-oxo-2-(pyrrolidin-1-yl)ethyl)-2,5-dimethylpiperazin-1-yl)-5-methyl-6-oxo-5,6-dihydro-1,5-naphthyridine-2-carbonitrile] it is 9.03 µM.
On the same count and under the same terms, the figure for `C[C@@H]1CN(c2cc(=O)n(C)c3ccc(C#N)nc23)[C@@H](C)CN1C(C(=O)N(C)C)c1ccc(F)cc1` (stereo partly drawn) [Example 24, 2-((2R,5S)-4-(6-cyano-1-methyl-2-oxo-1,2-dihydro-1,5-naphthyridin-4-yl)-2,5-dimethylpiperazin-1-yl)-2-(4-fluorophenyl)-N,N-dimethylacetamide] is 20 µM.
Same read-out and setting: to `CNC(=O)C(c1ccc(F)cc1)N1C[C@H](C)N(c2cc(=O)n(C)c3ccc(C#N)nc23)C[C@H]1C` (stereo partly drawn) [Example 25, 2-((2R,5S)-4-(6-cyano-1-methyl-2-oxo-1,2-dihydro-1,5-naphthyridin-4-yl)-2,5-dimethylpiperazin-1-yl)-2-(4-fluorophenyl)-N-methylacetamide] belongs 5.12 µM; to `CC(C(=O)Nc1cnn(C)c1)N1C[C@H](C)N(c2cc(=O)n(C)c3ccc(C#N)nc23)C[C@H]1C` (stereo partly drawn) [Example 46, 2-((2R,5S)-4-(6-cyano-1-methyl-2-oxo-1,2-dihydro-1,5-naphthyridin-4-yl)-2,5-dimethylpiperazin-1-yl)-N-(1-methyl-1H-pyrazol-4-yl)propanamide], 20 µM.
Take `CC(C(=O)NC1CC1)N1C[C@H](C)N(c2cc(=O)n(C)c3ccc(C#N)nc23)C[C@H]1C` (stereo partly drawn) [Example 48, 2-((2R,5S)-4-(6-cyano-1-methyl-2-oxo-1,2-dihydro-1,5-naphthyridin-4-yl)-2,5-dimethylpiperazin-1-yl)-N-cyclopropylpropanamide]: the 50% effective concentration (EC50) came to 20 µM.
